Legend:
[1] = for viscosity / mass density: 101.33 kPa, Liquid; for viscosity: Falling or rolling sphere viscometry; for mass density: Vibrating tube method
[2] = activity coefficient (dimensionless); of the first substance listed, at infinite dilution; xn = mol fraction of the nth substance listed; details: 101 kPa, Liquid, Chromatography, x1 = 0

C[N+]1(CCCO)CCOCC1.O=S(=O)([N-]S(=O)(=O)C(F)(F)F)C(F)(F)F
[1]
Details	mass density [kg/m3]	viscosity [mPa·s]
298.15 K	1536.09	1183
308.15 K	1527.32	565.7
318.15 K	1518.74	280.7
328.15 K	1510.14	156.1
338.15 K	1501.59	94.49
348.15 K	1493.08	61.14
358.15 K	1484.63	37.79
368.15 K	1476.24	27.09

[1], DTA
Details	Glass transition temperature [°C]	Normal melting temperature [°C]
Crystal	–	14
Glass	-52.5	–

CCCCCCCC [octane] + C[N+]1(CCCO)CCOCC1.O=S(=O)([N-]S(=O)(=O)C(F)(F)F)C(F)(F)F
[2]
Details	activity coefficient
318.15 K	315
328.15 K	265
338.15 K	230
348.15 K	199
358.15 K	172
368.15 K	152

C#CCCCCC [1-heptyne] + C[N+]1(CCCO)CCOCC1.O=S(=O)([N-]S(=O)(=O)C(F)(F)F)C(F)(F)F
[2]
Details	activity coefficient
318.15 K	20
328.15 K	19.2
338.15 K	18.4
348.15 K	17.6
358.15 K	16.9
368.15 K	16.3

O [water] + C[N+]1(CCCO)CCOCC1.O=S(=O)([N-]S(=O)(=O)C(F)(F)F)C(F)(F)F
[2]
Details	activity coefficient
318.15 K	1.43
328.15 K	1.36
338.15 K	1.28
348.15 K	1.21
358.15 K	1.15
368.15 K	1.1
